From patent publication US6969730B2, “Amines as histamine-3 receptor ligands and their therapeutic applications” (Abbott Laboratories, priority 2001, dated 2005) come the findings set out here.

T1 sequence (Q9QYN8 whole entry): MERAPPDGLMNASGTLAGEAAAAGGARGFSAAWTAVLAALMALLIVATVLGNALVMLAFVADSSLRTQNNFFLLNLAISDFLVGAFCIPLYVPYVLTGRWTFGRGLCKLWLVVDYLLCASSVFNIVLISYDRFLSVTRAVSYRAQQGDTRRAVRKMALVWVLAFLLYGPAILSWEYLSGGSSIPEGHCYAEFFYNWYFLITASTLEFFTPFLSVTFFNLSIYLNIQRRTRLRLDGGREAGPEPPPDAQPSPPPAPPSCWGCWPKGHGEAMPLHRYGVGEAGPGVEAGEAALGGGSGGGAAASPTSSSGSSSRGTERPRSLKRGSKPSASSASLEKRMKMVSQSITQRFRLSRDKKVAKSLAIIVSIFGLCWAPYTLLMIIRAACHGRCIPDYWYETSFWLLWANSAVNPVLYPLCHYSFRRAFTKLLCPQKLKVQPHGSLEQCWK

The experiment concerns the target T1, histamine-3 receptors (H3 receptor) (Rattus norvegicus, UniProt Q9QYN8).
T1 construct: from tissue; host or cells: male Sprague-Dawley rat brain cortex membranes
The experiment in a line: (3H)-N-α-methylhistamine binding to rat cortical membranes (histamine-3 receptor ligands). The settings on record: male Sprague-Dawley rat brain cortical membranes; (3H)-N-α-methylhistamine ~0.6 nM; 30 minutes at 25° C.; Cheng-Prusoff. The procedure:
Briefly, male Sprague-Dawley rat brain cortices were homogenized (1 g tissue/10 mL buffer) in 50 mM Tris-HCl/5 mM EDTA containing protease inhibitor cocktail (Calbiochem) using a polytron set at 20,500 rpm. Homogenates were centrifuged for 20 minutes at 40,000×g. The supernatant was decanted, and pellets were weighed. The pellet was resuspended by polytron homogenization in 40 mL 50 mM Tris-HCl/5 mM EDTA with protease inhibitors and centrifuged for 20 minutes at 40,000×g. […] Rat cortical membranes (12 mg wet weight/tube) were incubated with (^3H)-N-α-methylhistamine (˜0.6 nM) with or without H3 receptor antagonists in a total incubation volume of 0.5 mL of 50 mM Tris-HCl/5 mM EDTA (pH 7.7). Test compounds were dissolved in DSMO to provide a 20 mM solution, serially diluted and then added to the incubation mixture prior to initiating the incubation assay by addition of the membranes. Thioperamide (3 μM) was used to determine nonspecific binding. Binding incubations were conducted for 30 minutes at 25° C. and terminated by addition of 2 mL of ice cold 50 mM Tris-HCl (pH 7.7) and filtration through 0.3% polyethylenimine-soaked Unifilter plates (Packard). These filters were washed 4 additional times with 2 mL of ice-cold 50 mM Tris-HCl and dried for 1 hour. Radioactivity was determined using liquid scintillation counting techniques. Results were analyzed by Hill transformation and Ki values were determined using the Cheng-Prusoff equation.
In turn, `C[C@@H]1CCCN1CCc1cc2cc(C=Cc3ccc(F)cc3)ccc2o1` [Example 135, (2R)-1-(2-{5-[2-(4-fluorophenyl)vinyl]-1-benzofuran-2-yl}ethyl)-2-methylpyrrolidine] returned a Ki of 31 nM.
The figure for `C[C@@H]1CCCN1CCc1oc2ccc(-c3ccc(C#N)cc3)cc2c1-c1ccsc1` [Example 104, 4-[2-{2-[(2R)-2-methyl-1-pyrrolidinyl]ethyl}-3-(3-thienyl)-1-benzofuran-5-yl]benzonitrile] is 41 nM; for `C[C@@H]1CCCN1CCc1cc2cc(-c3cccc(CO)c3)ccc2o1` [Example 152, [3-(2-{2-[(2R)-2-methyl-1-pyrrolidinyl]ethyl}-1-benzofuran-5-yl)phenyl]methanol] it is 2.6 nM.
Regarding `CC[C@@H]1CCCN1CCc1cc2cc(-c3ccc(C#N)cc3)ccc2o1` [Example 163, 4-(2-{2-[(2R)-2-ethyl-1-pyrrolidinyl]ethyl}-1-benzofuran-5-yl)benzonitrile], the Ki turned out to be 3.7 nM.
The figure for `N#Cc1ccc(-c2ccc3oc(CCN4CCCCC4)cc3c2)cc1` [Example 4, 4-{2-[2-(1-piperidinyl)ethyl]-1-benzofuran-5-yl}benzonitrile] is 58.8 nM; for `C[C@@H]1CCCN1CCc1cc2cc(-c3noc(-c4ccc(C#N)cc4)n3)ccc2o1` [Example 88, 4-[3-(2-{2-[(2R)-2-methylpyrrolidin-1-yl]ethyl}-1-benzofuran-5-yl)-1,2,4-oxadiazol-5-yl]benzonitrile] it is 64 nM.
The figure for `C[C@@H]1CCCN1CCc1oc2ccc(-c3ccc(C#N)cc3)cc2c1-c1cccnc1` [Example 103, 4-[2-{2-[(2R)-2-methyl-1-pyrrolidinyl]ethyl}-3-(3-pyridinyl)-1-benzofuran-5-yl]benzonitrile] is 13 nM.
As for “4-(6-methyl-2-{2-[(2R)-2-methyl-1-pyrrolidinyl]ethyl}-1-benzofuran-5-yl)benzonitrile and 4-(4-methyl-2-{2-[(2R)-2-methyl-1-pyrrolidinyl]ethyl}-1-benzofuran-5-yl)benzonitrile [Example 108]”, the affinity corresponds to a Ki of 8 nM.
On to `N#Cc1ccc(-c2ccc3oc(CCN4CCCC4)cc3c2)cc1` [Example 2, 4-{2-[2-(1-pyrrolidinyl)ethyl]-1-benzofuran-5-yl}benzonitrile], for which the Ki was found to be 46.8 nM.
Turning to `C[C@@H]1CCCN1CCc1cc2cc(Cc3ccccc3)ccc2o1` [Example 153, (2R)-1-[2-(5-benzyl-1-benzofuran-2-yl)ethyl]-2-methylpyrrolidine], the Ki amounted to 32 nM.
With `O=C(c1ccc(-c2ccc3oc(CCN4CCC5(CC4)OCCO5)cc3c2)nc1)N1CCOCC1` [Example 60, 8-(2-{5-[5-(4-morpholinylcarbonyl)-2-pyridinyl]-1-benzofuran-2-yl}ethyl)-1,4-dioxa-8-azaspiro[4.5]decane] the figure was ≥ 1000 nM; with `C=CCNCCc1cc2cc(-c3ccc(C(=O)N4CCOCC4)cn3)ccc2o1` [Example 63, N-allyl-N-(2-{5-[5-(4-morpholinylcarbonyl)-2-pyridinyl]-1-benzofuran-2-yl}ethyl)amine], ≥ 1000 nM; with `C[C@@H]1CCCN1CCc1cc2cc(-c3ccc(CO)cc3)ccc2o1` [Example 133, [4-(2-{2-[(2R)-2-methyl-1-pyrrolidinyl]ethyl}-1-benzofuran-5-yl)phenyl]methanol], 6.4 nM.
With `Cc1cc(C#N)ccc1-c1ccc2oc(CCN3CCC[C@H]3C)cc2c1` [Example 107, 3-methyl-4-(2-{2-[(2R)-2-methyl-1-pyrrolidinyl]ethyl}-1-benzofuran-5-yl)benzonitrile], the affinity corresponds to a Ki of 8 nM.
With `C[C@@H]1CCCN1CCc1cc2cc(-c3cc(Cl)cc(Cl)c3)ccc2o1` [Example 131, (2R)-1-{2-[5-(3,5-dichlorophenyl)-1-benzofuran-2-yl]ethyl}-2-methylpyrrolidine] the figure was 22 nM; with `Cc1cc(-c2ccc(C#N)cc2)cc2cc(CCN3CCC[C@H]3C)oc12` [Example 109, 4-(7-methyl-2-{2-[(2R)-2-methyl-1-pyrrolidinyl]ethyl}-1-benzofuran-5-yl)benzonitrile], 10 nM.
With `C[C@@H]1CCCN1CCc1cc2cc(-c3ccc(C#N)c(F)c3)ccc2o1` [Example 111, 2-fluoro-4-(2-{2-[(2R)-2-methyl-1-pyrrolidinyl]ethyl}-1-benzofuran-5-yl)benzonitrile] the figure was 9 nM; with `C[C@@H]1CCCN1CCc1cc2cc(-c3cccc(C(F)(F)F)c3)ccc2o1` [Example 126, (2R)-2-methyl-1-(2-{5-[3-(trifluoromethyl)phenyl]-1-benzofuran-2-yl}ethyl)pyrrolidine], 81 nM; with `C[C@@H]1CCCN1CCc1cc2cc(-c3ccc(F)cc3)ccc2o1` [Example 113, (2R)-1-{2-[5-(4-fluorophenyl)-1-benzofuran-2-yl]ethyl}-2-methylpyrrolidine], 77 nM.
In turn, `C[C@@H]1CCCN1CCc1cc2cc(-c3cccc(OC(F)(F)F)c3)ccc2o1` [Example 128, (2R)-2-methyl-1-(2-{5-[3-(trifluoromethoxy)phenyl]-1-benzofuran-2-yl}ethyl)pyrrolidine] yielded a Ki of 110 nM.
With `CC(=O)c1cccc(-c2ccc3oc(CCN4CCC[C@H]4C)cc3c2)c1` [Example 136, 1-[3-(2-{2-[(2R)-2-methyl-1-pyrrolidinyl]ethyl}-1-benzofuran-5-yl)phenyl]ethanone] the figure was 0.4 nM; with `C[C@@H]1CCCN1CCc1cc2cc(-c3noc(-c4ccc(F)cc4)n3)ccc2o1` [Example 95, 5-(4-fluorophenyl)-3-(2-{2-[(2R)-2-methylpyrrolidin-1-yl]ethyl}-1-benzofuran-5-yl)-1,2,4-oxadiazole], 12 nM.
The figure for `N#Cc1ccc(-c2ccc3oc(CCN4CCC[C@H]4CF)cc3c2)cc1` [Example 164, 4-(2-{2-[(2S)-2-(fluoromethyl)-1-pyrrolidinyl]ethyl}-1-benzofuran-5-yl)benzonitrile] is 24 nM; for “(2R)-1-{2-[5-(4-methoxyphenyl)-1-benzofuran-2-yl]ethyl}-2-methylpyrrolidine [Example 121]” it is 51 nM.
With `C[C@@H]1CCCN1CCc1cc2cc(-c3noc(CCl)n3)ccc2o1` [Example 97, 5-(chloromethyl)-3-(2-{2-[(2R)-2-methylpyrrolidin-1-yl]ethyl}-1-benzofuran-5-yl)-1,2,4-oxadiazole] the figure was 1.4 nM.
`C[C@@H]1CCCN1CCc1cc2cc(-c3cccc(C(C)(C)O)c3)ccc2o1` [Example 138, 2-[3-(2-{2-[(2R)-2-methyl-1-pyrrolidinyl]ethyl}-1-benzofuran-5-yl)phenyl]-2-propanol]: the Ki is 1.2 nM.
The figure for `Cc1cc(-c2ccc3oc(CCN4CCC[C@H]4C)c(Br)c3c2)ccc1C#N` [Example 155, 4-(3-bromo-2-{2-[(2R)-2-methyl-1-pyrrolidinyl]ethyl}-1-benzofuran-5-yl)-2-methylbenzonitrile] is 16 nM.
The figure for `C[C@@H]1CCCN1CCc1cc2c(-c3ccc(C#N)cc3)cccc2o1` [Example 85, 4-(2-{2-[(2R)-2-methyl-1-pyrrolidinyl]ethyl}-1-benzofuran-4-yl)benzonitrile] is 42 nM.
As for `C[C@@H]1CCCN1CCc1cc2cc(-c3ccc(Cl)c(Cl)c3)ccc2o1` [Example 114, (2R)-1-{2-[5-(3,4-dichlorophenyl)-1-benzofuran-2-yl]ethyl}-2-methylpyrrolidine], the Ki is 97 nM.
The figure for `C[C@@H]1CCCN1CCc1cc2cc(-c3noc(-c4ccccc4)n3)ccc2o1` [Example 94, 3-(2-{2-[(2R)-2-methylpyrrolidin-1-yl]ethyl}-1-benzofuran-5-yl)-5-phenyl-1,2,4-oxadiazole] is 16 nM; for `CC(=NOC(C)(C)C)c1cccc(-c2ccc3oc(CCN4CCC[C@H]4C)cc3c2)c1` [Example 142, 1-[3-(2-{2-[(2R)-2-methyl-1-pyrrolidinyl]ethyl}-1-benzofuran-5-yl)phenyl]ethanone O-(tert-butyl)oxime] it is 29 nM; for `Cc1ccc(-c2ccc3oc(CCN4CCC[C@H]4C)cc3c2)cc1C` [Example 130, (2R)-1-{2-[5-(3,4-dimethylphenyl)-1-benzofuran-2-yl]ethyl}-2-methylpyrrolidine] it is 60 nM.
With `C[C@@H]1CCC(=O)N1CCc1cc2cc(-c3ccc(C#N)cc3)ccc2o1` [Example 158, 4-(2-{2-[(2R)-2-methyl-5-oxo-1-pyrrolidinyl]ethyl}-1-benzofuran-5-yl)benzonitrile] the figure was > 1000 nM.
The figure for `COc1ccccc1-c1ccc2oc(CCN3CCC[C@H]3C)cc2c1` [Example 119, (2R)-1-{2-[5-(2-methoxyphenyl)-1-benzofuran-2-yl]ethyl}-2-methylpyrrolidine] is 66 nM.
“3-{[3-(2-{2-[(2R)-2-methylpyrrolidin-1-yl]ethyl}-1-benzofuran-5-yl)-1,2,4-oxadiazol-5-yl]methyl}benzonitrile [Example 93]” displayed an inhibitory constant (Ki) of 6 nM.
The figure for `C[C@@H]1CCCN1CCc1cc2cc(-c3cccc(Cl)c3)ccc2o1` [Example 124, (2R)-1-{2-[5-(3-chlorophenyl)-1-benzofuran-2-yl]ethyl}-2-methylpyrrolidine] is 34 nM.
